# How the values were obtained:
# [1] = tested on: Escherichia coli; experiment: Antibacterial activity against Escherichia coli ATCC 25922 incubated for 16 to 18 hrs by serial plate dilution method; format: functional; settings: time hrs 16-18
# [2] = tested on: Staphylococcus aureus; experiment: Antibacterial activity against methicillin-resistant Staphylococcus aureus ATCC 25923 incubated for 16 to 18 hrs by serial plate dilution method; format: functional; settings: time hrs 16-18
# [3] = tested on: Pseudomonas aeruginosa; experiment: Antibacterial activity against Pseudomonas aeruginosa ATCC 27853 incubated for 16 to 18 hrs by serial plate dilution method; format: functional; settings: time hrs 16-18
# [4] = tested on: Klebsiella pneumoniae; experiment: Antibacterial activity against Klebsiella pneumoniae incubated for 16 to 18 hrs by serial plate dilution method; format: functional; settings: time hrs 16-18
# [5] = tested on: Aspergillus flavus; experiment: Antifungal activity against Aspergillus flavus NCIM 524 incubated for 3 to 4 days by serial plate dilution method; format: functional; settings: time day 3-4
# [6] = tested on: Aspergillus fumigatus; experiment: Antifungal activity against Aspergillus fumigatus NCIM 902 incubated for 3 to 4 days by serial plate dilution method; format: functional; settings: time day 3-4
# [7] = tested on: Talaromyces marneffei; experiment: Antifungal activity against Penicillium marneffei incubated for 3 to 4 days by serial plate dilution method; format: functional; settings: time day 3-4
# [8] = tested on: Trichophyton mentagrophytes; experiment: Antifungal activity against Trichophyton mentagrophytes incubated for 3 to 4 days by serial plate dilution method; format: functional; settings: time day 3-4
# [9] = tested on: Bacillus cereus; experiment: Antibacterial activity against Bacillus cereus; format: functional
# [10] = tested on: Staphylococcus aureus; experiment: Antibacterial activity against Staphylococcus aureus; format: functional
# [11] = tested on: KB; experiment: Cytotoxicity against human KB cells; format: cell-based; settings: Homo sapiens, KB
MIC [9] [µg/mL],MIC [10] [µg/mL],SMILES,MIC [1] [µg/mL],MIC [2] [µg/mL],MIC [3] [µg/mL],MIC [4] [µg/mL],MIC [5] [µg/mL],MIC [6] [µg/mL],MIC [7] [µg/mL],MIC [8] [µg/mL],IC50 [11] [µg/mL]
–,–,Cc1c(C(=O)N/N=C/c2ccccc2)nnn1-c1cc(C(F)(F)F)nc2c(C(F)(F)F)cccc12,6.25,6.25,6.25,6.25,6.25,6.25,6.25,6.25,–
–,–,COc1cccc(/C=N/NC(=O)c2nnn(-c3cc(C(F)(F)F)nc4c(C(F)(F)F)cccc34)c2C)c1,6.25,6.25,6.25,6.25,6.25,6.25,6.25,6.25,–
–,–,COc1ccc(/C=N/NC(=O)c2nnn(-c3cc(C(F)(F)F)nc4c(C(F)(F)F)cccc34)c2C)c([N+](=O)[O-])c1OC,6.25,6.25,6.25,6.25,6.25,6.25,6.25,6.25,–
–,–,Cc1ccsc1/C=N/NC(=O)c1nnn(-c2cc(C(F)(F)F)nc3c(C(F)(F)F)cccc23)c1C,6.25,6.25,6.25,6.25,6.25,6.25,6.25,6.25,–
1.56,1.56,CC(=O)C(C)(C)C(=O)N1CC[C@@H](C(=O)NC(C)(C)C(=O)N[C@@H](C)C(=O)NC(C)(C)C(=O)N[C@@H](C)C(=O)N[C@@H](CCC(N)=O)C(=O)NC(C)(C)C(=O)N[C@H](C(=O)NC(C)(C)C(=O)NCC(=O)N[C@@H](CC(C)C)C(=O)NC(C)(C)C(=O)N2CCC[C@@H]2C(=O)N[C@H](C(=O)NC(C)(C)C(=O)NC(C)(C)C(=O)N[C@@H](CCC(N)=O)C(=O)N[C@@H](CCC(N)=O)C(=O)N[C@H](CO)Cc2ccccc2)C(C)C)C(C)C)C1,–,–,–,–,–,–,–,–,1.56
1.56,1.56,CC(C)C[C@H](NC(=O)CNC(=O)C(C)(C)NC(=O)[C@@H](NC(=O)C(C)(C)NC(=O)[C@H](CCC(N)=O)NC(=O)[C@H](C)NC(=O)C(C)(C)NC(=O)[C@H](C)NC(=O)C(C)(C)NC(=O)[C@@H]1CCN(C(=O)C(C)(C)n2cc(-c3ccc(-c4ccccc4)cc3)nn2)C1)C(C)C)C(=O)NC(C)(C)C(=O)N1CCC[C@@H]1C(=O)N[C@H](C(=O)NC(C)(C)C(=O)NC(C)(C)C(=O)N[C@@H](CCC(N)=O)C(=O)N[C@@H](CCC(N)=O)C(=O)N[C@H](CO)Cc1ccccc1)C(C)C,–,–,–,–,–,–,–,–,2.9
1.56,1.56,COc1ccc2ccc(-c3cn(C(C)(C)C(=O)N4CC[C@@H](C(=O)NC(C)(C)C(=O)N[C@@H](C)C(=O)NC(C)(C)C(=O)N[C@@H](C)C(=O)N[C@@H](CCC(N)=O)C(=O)NC(C)(C)C(=O)N[C@H](C(=O)NC(C)(C)C(=O)NCC(=O)N[C@@H](CC(C)C)C(=O)NC(C)(C)C(=O)N5CCC[C@@H]5C(=O)N[C@H](C(=O)NC(C)(C)C(=O)NC(C)(C)C(=O)N[C@@H](CCC(N)=O)C(=O)N[C@@H](CCC(N)=O)C(=O)N[C@H](CO)Cc5ccccc5)C(C)C)C(C)C)C4)nn3)cc2c1,–,–,–,–,–,–,–,–,2.9
–,–,COc1ccc(/C=N/NC(=O)c2nnn(-c3cc(C(F)(F)F)nc4c(C(F)(F)F)cccc34)c2C)c(OC)c1OC,6.25,6.25,6.25,6.25,6.25,6.25,6.25,6.25,–
1.56,1.56,CC(C)C[C@H](NC(=O)CNC(=O)C(C)(C)NC(=O)[C@@H](NC(=O)C(C)(C)NC(=O)[C@H](CCC(N)=O)NC(=O)[C@H](C)NC(=O)C(C)(C)NC(=O)[C@H](C)NC(=O)C(C)(C)NC(=O)[C@@H]1CCN(C(=O)C(C)(C)n2cc(-c3ccc4ccc5cccc6ccc3c4c56)nn2)C1)C(C)C)C(=O)NC(C)(C)C(=O)N1CCC[C@@H]1C(=O)N[C@H](C(=O)NC(C)(C)C(=O)NC(C)(C)C(=O)N[C@@H](CCC(N)=O)C(=O)N[C@@H](CCC(N)=O)C(=O)N[C@H](CO)Cc1ccccc1)C(C)C,–,–,–,–,–,–,–,–,2.9
1.56,1.56,CC(C)C[C@H](NC(=O)CNC(=O)C(C)(C)NC(=O)[C@@H](NC(=O)C(C)(C)NC(=O)[C@H](CCC(N)=O)NC(=O)[C@H](C)NC(=O)C(C)(C)NC(=O)[C@H](C)NC(=O)C(C)(C)NC(=O)[C@@H]1CCN(C(=O)C(C)(C)n2cc(-c3cc(C(F)(F)F)cc(C(F)(F)F)c3)nn2)C1)C(C)C)C(=O)NC(C)(C)C(=O)N1CCC[C@@H]1C(=O)N[C@H](C(=O)NC(C)(C)C(=O)NC(C)(C)C(=O)N[C@@H](CCC(N)=O)C(=O)N[C@@H](CCC(N)=O)C(=O)N[C@H](CO)Cc1ccccc1)C(C)C,–,–,–,–,–,–,–,–,2.9
–,–,Cc1c(C(=O)N/N=C/c2ccc([N+](=O)[O-])cc2)nnn1-c1cc(C(F)(F)F)nc2c(C(F)(F)F)cccc12,6.25,6.25,6.25,6.25,6.25,6.25,6.25,6.25,–
1.56,1.56,CC(C)C[C@H](NC(=O)CNC(=O)C(C)(C)NC(=O)[C@@H](NC(=O)C(C)(C)NC(=O)[C@H](CCC(N)=O)NC(=O)[C@H](C)NC(=O)C(C)(C)NC(=O)[C@H](C)NC(=O)C(C)(C)NC(=O)[C@@H]1CCN(C(=O)C(C)(C)n2cc(-c3ccccc3C(F)(F)F)nn2)C1)C(C)C)C(=O)NC(C)(C)C(=O)N1CCC[C@@H]1C(=O)N[C@H](C(=O)NC(C)(C)C(=O)NC(C)(C)C(=O)N[C@@H](CCC(N)=O)C(=O)N[C@@H](CCC(N)=O)C(=O)N[C@H](CO)Cc1ccccc1)C(C)C,–,–,–,–,–,–,–,–,2.9
1.56,1.56,CC(C)C[C@H](NC(=O)CNC(=O)C(C)(C)NC(=O)[C@@H](NC(=O)C(C)(C)NC(=O)[C@H](CCC(N)=O)NC(=O)[C@H](C)NC(=O)C(C)(C)NC(=O)[C@H](C)NC(=O)C(C)(C)NC(=O)[C@@H]1CCN(C(=O)C(C)(C)n2cc(-c3ccc(F)c(F)c3)nn2)C1)C(C)C)C(=O)NC(C)(C)C(=O)N1CCC[C@@H]1C(=O)N[C@H](C(=O)NC(C)(C)C(=O)NC(C)(C)C(=O)N[C@@H](CCC(N)=O)C(=O)N[C@@H](CCC(N)=O)C(=O)N[C@H](CO)Cc1ccccc1)C(C)C,–,–,–,–,–,–,–,–,2.9
–,–,COc1ccc(/C=N/NC(=O)c2nnn(-c3cc(C(F)(F)F)nc4c(C(F)(F)F)cccc34)c2C)cc1,6.25,6.25,6.25,6.25,6.25,6.25,6.25,6.25,–
–,–,Cc1c(C(=O)N/N=C/c2ccc(-c3ccccc3)cc2)nnn1-c1cc(C(F)(F)F)nc2c(C(F)(F)F)cccc12,6.25,6.25,6.25,6.25,6.25,6.25,6.25,6.25,–
–,–,COc1ccc(/C=N/NC(=O)c2nnn(-c3cc(C(F)(F)F)nc4c(C(F)(F)F)cccc34)c2C)cc1OC,6.25,6.25,6.25,6.25,6.25,6.25,6.25,6.25,–
–,–,COc1cccc(/C=N/NC(=O)c2nnn(-c3cc(C(F)(F)F)nc4c(C(F)(F)F)cccc34)c2C)c1O,6.25,6.25,6.25,6.25,6.25,6.25,6.25,6.25,–
1.56,1.56,CC(C)C[C@H](NC(=O)CNC(=O)C(C)(C)NC(=O)[C@@H](NC(=O)C(C)(C)NC(=O)[C@H](CCC(N)=O)NC(=O)[C@H](C)NC(=O)C(C)(C)NC(=O)[C@H](C)NC(=O)C(C)(C)NC(=O)[C@@H]1CCN(C(=O)C(C)(C)n2cc(-c3cccc(C(F)(F)F)c3)nn2)C1)C(C)C)C(=O)NC(C)(C)C(=O)N1CCC[C@@H]1C(=O)N[C@H](C(=O)NC(C)(C)C(=O)NC(C)(C)C(=O)N[C@@H](CCC(N)=O)C(=O)N[C@@H](CCC(N)=O)C(=O)N[C@H](CO)Cc1ccccc1)C(C)C,–,–,–,–,–,–,–,–,2.9
–,–,Cc1c(C(=O)N/N=C/c2cccnc2)nnn1-c1cc(C(F)(F)F)nc2c(C(F)(F)F)cccc12,6.25,6.25,6.25,6.25,6.25,6.25,6.25,6.25,–
–,–,Cc1c(C(=O)N/N=C/c2ccccc2O)nnn1-c1cc(C(F)(F)F)nc2c(C(F)(F)F)cccc12,6.25,6.25,6.25,6.25,6.25,6.25,6.25,6.25,–
–,–,Cc1c(C(=O)N/N=C/c2ccc(O)cc2)nnn1-c1cc(C(F)(F)F)nc2c(C(F)(F)F)cccc12,6.25,6.25,6.25,6.25,6.25,6.25,6.25,6.25,–
–,–,COc1ccc2cc(/C=N/NC(=O)c3nnn(-c4cc(C(F)(F)F)nc5c(C(F)(F)F)cccc45)c3C)ccc2c1,6.25,6.25,6.25,6.25,6.25,6.25,6.25,6.25,–
12.5,12.5,CC(C)C[C@H](NC(=O)CNC(=O)C(C)(C)NC(=O)[C@@H](NC(=O)C(C)(C)NC(=O)[C@H](CCC(N)=O)NC(=O)[C@H](C)NC(=O)C(C)(C)NC(=O)[C@H](C)NC(=O)C(C)(C)NC(=O)[C@@H]1CCN(C(=O)C(C)(C)n2cc(-c3ccc(C(F)(F)F)cc3)nn2)C1)C(C)C)C(=O)NC(C)(C)C(=O)N1CCC[C@@H]1C(=O)N[C@H](C(=O)NC(C)(C)C(=O)NC(C)(C)C(=O)N[C@@H](CCC(N)=O)C(=O)N[C@@H](CCC(N)=O)C(=O)N[C@H](CO)Cc1ccccc1)C(C)C,–,–,–,–,–,–,–,–,2.9

# From ChEMBL document CHEMBL4699440, “Comprehensive review on the anti-bacterial activity of 1,2,3-triazole hybrids” (Eur J Med Chem, 2019)
